{
  "source": "patent US6319955A",
  "about": "“Use of MEK1 inhibitors as protective agents against damage due to ischemia” (priority 2000, dated 2001)",
  "key": {"ERK1/2 [1]": {"system": "ERK1/2", "assay": "immunohistochemistry of phosphorylated ERK1/2 in brain slices after ischemia and reperfusion (PD98059 i.c.v.)", "assay_type": "in vivo, mouse (SV-129)", "conditions": "2 μl of 200 μM i.c.v. 30 min before ischemia; 120 min ischemia, 3 min reperfusion"}, "[2]": {"system": "neurological deficits caused by ischemia", "assay": "neurological grading after 2 hours of MCA occlusion and reperfusion", "assay_type": "in vivo, mouse (SV-129)", "conditions": "three days after 2 hours MCA occlusion and reperfusion; mean±SEM; vehicle 2.2±0.3; P<0.05", "experimental": "Data are presented as mean ±SEM Data were analyzed by Student-t test or one-way ANOVA followed by Bonferroni's post hoc test."}, "[3]": {"assay": "regional cerebral blood flow by Laser-Doppler flowmetry, PD98059", "assay_type": "in vivo, mouse", "conditions": "200 μM PD98059, n = 5, % of baseline, means ±SD", "text": "Data are presented as means ±SD. Therefore, the decrease in ERK1/2 phosphorylation seen with PD98059 was not due to higher blood flow."}, "[4]": {"assay": "mean arterial blood pressure, PD98059", "assay_type": "in vivo, mouse", "description": "Mean arterial blood pressure (MABP) was determined in the presence or absence of 200 μM PD98059 10 minutes before and 1 hour after induction of ischemia, and 30 minutes after reperfusion under 1% halothane anesthesia (Table 2). Data are presented as means±SD. MABP was determined to be unaltered."}, "[5]": {"assay": "arterial blood pH, pCO2 and pO2, PD98059", "assay_type": "in vivo, mouse", "description": "Partial oxygen tension (pO2), partial carbon dioxide tension (pCO2), and blood pH were determined in the presence or absence of 200 μM PD98059, 1 hour after the induction of ischemia under 1% halothane anesthesia (Table 3)."}, "[6]": {"conditions": "mouse, in vivo"}, "MEK1": {"system": "MEK1", "conditions": "Favata et al., 1998, DeSilva et al.; cited from earlier work"}, "p38 MAP kinase": {"system": "p38 MAP kinase", "conditions": "Cohen, Trends Cell Biol. 7:353, 1997; cited from earlier work"}, "SAPKs/JNKs": {"system": "SAPKs/JNKs", "conditions": "Cohen, Trends Cell Biol. 7:353, 1997; cited from earlier work"}, "ERK1/2 [7]": {"system": "ERK1/2", "conditions": "5 mM glutamate"}, "[8]": {"conditions": "compared with native tPA; cited from earlier work"}},
  "data": [
    {"compound": "COc1cccc(-c2cc(=O)c3ccccc3o2)c1N", "note": "[PD98059, 2-(2-amino-3-methoxyphenyl)-4-oxo-4H-[1]benzopyran]", "values": [
      {"measurement": "phosphorylation of ERK1/2 in the middle cerebral artery territory", "setting": "ERK1/2 [1]", "value": "reduced"},
      {"measurement": "neurological grading", "setting": "[2]", "value": "0.71±0.29"},
      {"measurement": "RCBF (after MCA)", "setting": "[3]; 30 min reperfusion, DMSO 102.5% ± 6.8", "value": "94.9% ± 8.9"},
      {"measurement": "RCBF (during MCA)", "setting": "[3]; DMSO 25.2% ± 5.7", "value": "15.9% ± 1.7"},
      {"measurement": "MABP (before)", "setting": "[4]; 200 μM PD98059, n = 5, 10 minutes before ischemia, means±SD, DMSO 80.7 ± 7.5, in mmHg (unit assumed)", "value": "86.4 ± 10.9"},
      {"measurement": "MABP (after)", "setting": "[4]; 200 μM PD98059, n = 5, 30 minutes after reperfusion, means±SD, DMSO 82.8 ± 13.5", "value": "86.0 ± 12.3"},
      {"measurement": "MABP (during)", "setting": "[4]; 200 μM PD98059, n = 5, 1 hour after induction of ischemia, means±SD, DMSO 82.3 ± 2.1, in mmHg (unit assumed)", "value": "81.8 ± 4.1"},
      {"measurement": "MABP, in words", "setting": "[4]; 200 μM PD98059 vs DMSO", "value": "unaltered"},
      {"measurement": "blood pH", "setting": "[5]; 200 μM PD98059, n = 5, 1 hour after induction of ischemia, means ±SD, DMSO 7.32 ± 0.06", "value": "7.32 ± 0.07"},
      {"measurement": "PCO2", "setting": "[5]; 200 μM PD98059, n = 5, 1 hour after induction of ischemia, means ±SD, DMSO 48.8 ± 5.1, in mmHg (unit assumed)", "value": "49.9 ± 3.5"},
      {"measurement": "PO2", "setting": "[5]; 200 μM PD98059, n = 5, 1 hour after induction of ischemia, means ±SD, DMSO 155.3 ± 13.8, in mmHg (unit assumed)", "value": "139.1 ± 21.6"},
      {"measurement": "pO2, pCO2, and blood pH, in words", "setting": "[5]; 200 μM PD98059 vs DMSO", "value": "did not differ between the two groups"},
      {"measurement": "body temperature", "setting": "[6]", "value": "34.6±0.8", "unit": "°C"},
      {"measurement": "temporal muscle temperature", "setting": "[6]", "value": "35.5±0.1", "unit": "°C"},
      {"measurement": "cell injury", "setting": "HT22 cells; PD98059 50 μM, 9 hours after 5 mM glutamate", "value": "partially attenuated cell injury"},
      {"measurement": "protective effects", "setting": "HT22 cells; PD98059 50 μM, 24 hours after 5 mM glutamate", "value": "did not sustain for 24 hours"},
      {"measurement": "inhibition of active / inactive MEK1, in words", "setting": "MEK1", "value": "cannot efficiently inhibit MEK1 once it is activated"}
    ]},
    {"compound": "C[S+]([O-])c1ccc(-c2nc(-c3ccncc3)c(-c3ccc(F)cc3)[nH]2)cc1", "note": "(centres unmarked) [SB203580]", "values": [
      {"measurement": "inhibitor of p38 MAP kinase (concentration)", "setting": "p38 MAP kinase", "value": "1 to 2", "unit": "µM"},
      {"measurement": "inhibitor of SAPKs/JNKs (concentration)", "setting": "SAPKs/JNKs", "value": "> 10", "unit": "µM"}
    ]},
    {"compound": "N[C@@H](CCC(=O)O)C(=O)O", "note": "[glutamate]", "values": [
      {"measurement": "completion of cell injury after addition of glutamate", "setting": "HT22 cells; 5 mM glutamate (FIG. 5A)", "value": "up to 10 hours"},
      {"measurement": "onset of cell injury after addition of glutamate", "setting": "HT22 cells; 5 mM glutamate (FIG. 5A)", "value": 8, "unit": "h"},
      {"measurement": "time of further increase of ERK1/2 phosphorylation after glutamate addition", "setting": "ERK1/2 [7]", "value": "7 to 8", "unit": "h"}
    ]},
    {"compound": "conjugation of tPA to polyethylene glycol: conjugation of tPA to polyethylene glycol", "values": [
      {"measurement": "clearance rate, in words", "setting": "[8]", "value": "reduce the clearance rate of tPA"}
    ]}
  ]
}
